Tests used:
[1] = 6-week voluntary electronic customer survey on stress and mood after daily fatty15 (C15:0) supplement; assay type: in vivo, human; settings: 100 mg daily oral (fatty15 capsule), 6 weeks; 135 responders; response of 7 or greater on 1-10 scale = agreement
Method: An odd-chain saturated fatty acid dietary supplement, containing an encapsulated pure (>98%) free fatty acid C15:0 powder and called fatty15™, was available as a consumer health product. Recommended dosing is a single, 100 mg capsule taken orally once a day.
6-Week Survey. Approximately six weeks following receipt of the C15:0 supplement, fattyl5, customers were provided a voluntary electronic questionnaire to evaluate potential near-term benefits, including the questions: “Overall how much would you agree with the following statement: Since starting fatty15, I have been feeling more calm and/or less stressed.” and “Overall how much would you agree with the following statement: Since starting fatty15, I generally feel happier and/or not as bothered by things that used to upset me.”
Survey responders were asked to select a number between 1 and 10, in which 1=Strongly disagree and 10=Strongly agree. A response of 7 or greater was considered an agreement with the statement. Survey responders were also asked if fatty15 had become a part of their daily health routine.

CB1 = molecular target: T1, CB1 (Homo sapiens, UniProt P21554); assay: SAFETYscan E/IC50 ELECT functional assay, CB1 receptor agonist mode; assay type: cell-based; settings: at 20 μM; relative to positive control CP 55940 assigned 100% activity
T1 construct: purchased DiscoverX/Eurofins SAFETYscan E/IC50 ELECT
From the text: (§1) This study assessed potential pharmacologic targets of pentadecanoic acid. Specifically, this study examined agonist and antagonist activities of synthetic pentadecanoic acid across 78 assays using SAFETYscan E/IC50 ELECT (DiscoverX/Eurofins, Fremont, California). Briefly, a variety of standardized and optimized functional assays were used to assess pentadecanoic acid's pharmacologic targets, including G protein coupled receptors (ADORA2A, ADRA1A, ADRA2A, ADRB1, ADRB2, CB1, CB2, CCK1, D1, D2S, ETA, H1, H2, M1 M2, M3, OPRD1, OPRK1, OPRM1, 5HTR1A, 5HTR1B, 5HTR2A, 5HTR2B, AVPR1A), kinases (LCK, INSR, VEGFR2, ROCK1), transporters (DAT, NET, SERT), ion channels (GABAA, 5-HT3, CA1.2, HERG, KVLQT1/MINK, NA1.5, NMDAR1/2B, NACHR), nuclear receptors (AR, GR), and non-kinase enzymes (COX1, COX2, ACHE, MAOA, PDE3A, PDE4D2). Ten-point concentration curves for both agonist (EC50) and antagonist (IC50) activity were established for each target. Maximum activity (%) was also determined based on comparisons with internal positive controls, which were assigned 100% activity.

CB2 = molecular target: T2, CB2 (Homo sapiens, UniProt P34972); assay: SAFETYscan E/IC50 ELECT functional assay, CB2 receptor agonist mode; assay type: cell-based; settings: at 20 μM; relative to positive control CP 55940 assigned 100% activity
T2 construct: purchased DiscoverX/Eurofins SAFETYscan E/IC50 ELECT
From the text: as §1

[2] = Customer testimonials on stress and mood with fatty15 (C15:0) supplement; assay type: in vivo, human; settings: daily oral supplementation 100 mg/day (fatty15); summary of testimonials in the 1st table
Method: An odd-chain saturated fatty acid dietary supplement, containing an encapsulated pure (>98%) free fatty acid C15:0 powder and called fatty15™, is available as a consumer health product. Recommended dosing is a single, 100 mg capsule taken orally once a day. Customers were provided opportunities to share their experience, including through voluntary surveys and customer rating programs.

T1 sequence (P21554 whole entry): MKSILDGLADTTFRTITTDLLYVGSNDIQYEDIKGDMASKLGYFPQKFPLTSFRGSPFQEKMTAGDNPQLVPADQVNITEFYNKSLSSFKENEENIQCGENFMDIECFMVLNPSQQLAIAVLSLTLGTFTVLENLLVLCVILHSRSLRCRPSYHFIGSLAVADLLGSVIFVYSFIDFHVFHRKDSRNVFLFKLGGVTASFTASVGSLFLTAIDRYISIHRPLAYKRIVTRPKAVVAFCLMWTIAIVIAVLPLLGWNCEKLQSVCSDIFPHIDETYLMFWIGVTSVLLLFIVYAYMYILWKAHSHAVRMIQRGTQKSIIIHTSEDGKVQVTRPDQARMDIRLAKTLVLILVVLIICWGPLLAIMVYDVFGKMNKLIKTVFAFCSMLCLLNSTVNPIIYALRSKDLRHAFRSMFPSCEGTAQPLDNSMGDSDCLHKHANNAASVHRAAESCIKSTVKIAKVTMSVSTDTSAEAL
T2 sequence (P34972 whole entry): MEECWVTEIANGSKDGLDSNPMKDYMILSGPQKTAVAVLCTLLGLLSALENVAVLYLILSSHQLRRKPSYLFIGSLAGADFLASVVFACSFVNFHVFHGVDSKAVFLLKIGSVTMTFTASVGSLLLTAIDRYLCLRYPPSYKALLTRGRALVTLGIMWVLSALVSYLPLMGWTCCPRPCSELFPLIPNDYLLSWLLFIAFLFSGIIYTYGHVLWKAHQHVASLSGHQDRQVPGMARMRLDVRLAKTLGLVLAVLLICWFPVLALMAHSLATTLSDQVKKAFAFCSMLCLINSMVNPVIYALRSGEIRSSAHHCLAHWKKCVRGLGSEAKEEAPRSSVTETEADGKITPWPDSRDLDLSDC

## CCCCCCCCCCCCCCC(=O)O [pentadecanoic acid]
[1]
  customers reporting feeling calmer and/or less stressed: 41%
  customers reporting feeling generally happier and/or not as bothered by things that used to upset them: 37%
CB1
  CB1 agonist activity: 24.5%
CB2
  CB2 agonist activity: 18.2%
[2]
  effect on stress and mood per customer testimonials: can lower stress and calm and enhance mood
